Assays:
genetically obese mice = assay: carcass lipid of genetically obese mice after daily oral dosing for 28 days (anti-obesity); format: in vivo, mouse (genetically obese); conditions: for g - lipid per mouse, Treated: daily for 28 days; for anti-obesity activity (in words): general statement, no dose given
Experimental: (i) The compounds and a comparison compound (salbutamol) were dosed daily in water or carboxymethylcellulose suspension to genetically obese mice by oral gavage for 28 days. At the end of that time the carcass composition was determined.

blood glucose = assay: hypoglycaemic activity: reduction in area under blood glucose curve after glucose load in fasted mice; format: in vivo, female CFLP mice; conditions: for inhibition in vivo at 5 mg/kg: Mus musculus, po, 2 h; for anti-hyperglycaemic activity (in words): general statement, no dose given
Experimental: Female CFLP mice, weighing approximately 25 g, were fasted for 24 hours prior to the study. The compounds under study were dosed orally (20 mg and 5 mg/kg) to each of 8 mice. 30 minutes later a blood sample ([…]) was obtained from the tail for the analysis of blood glucose. Immediately after taking this blood sample, each mouse was given a glucose load (1 g/kg body weight sub-cutaneously). Blood samples were then obtained from each mouse at 30 minute intervals for 120 minutes.
Compounds that produced a significant (P<0.05) reduction of blood glucose, compared with control mice given water, at any time interval were considered active. The area under the blood glucose curve over the 2 hour period after giving the glucose load was calculated for each compound and compared with the value for control animals. Thus a compound would give a 100% reduction in the area under the blood glucose curve if the blood glucose was maintained at the same level as in untreated fasted animals. Reduction in the glucose curve of more than 100% indicate that a compound, in spite of being given a glucose load, maintained blood glucose levels below that found in control fasted mice.

[1] = relative potency / activity (test not specified)
CFLP mice = assay: acute toxicity, single lethal dose; format: in vivo; conditions: po
From the text: Other compounds of the invention have similar low toxicities.

[2] = tested on: 5-hydroxytryptamine-induced bronchoconstriction; assay: bronchodilator potency in anaesthetised artificially respired guinea pig (Konzett-Rossler preparation); format: in vivo; conditions: inhibition of 5-hydroxytryptamine-induced bronchoconstriction
[3] = 11 mg/kg po, control 18.9 ± 0.66 (Ex. 12), 17.0 ± 0.67 (Ex. 17)
[4] = 5 mg/kg po, 30 min before glucose load 1 g/kg sc, 2 hour period, versus control mice
[5] = 10 mg/kg po, control 18.3 ± 0.6 (Ex. 7), 16.5 ± 0.7 (Ex. 16, 21)

Structure (SMILES): COC(=O)c1ccc(CC(C)NCC(O)c2ccc(O)c(CO)c2)c(OC)c1 (stereo not shown) [Example 12, N-[2-(4-Carbomethoxy-2-methoxyphenyl)-1-methylethyl]-2-hydroxy-2-(4-hydroxy-3-hydroxymethylphenyl)ethanamine]
- g - lipid per mouse, Treated (genetically obese mice; [3]): 16.2 ± 0.42 g
- anti-obesity activity (in words) (genetically obese mice): particularly worthy of mention in view of their anti-obesity activity
- inhibition in vivo at 5 mg/kg (blood glucose; [4]): 168%
- anti-hyperglycaemic activity (in words) (blood glucose): particularly worthy of mention in view of their anti-hyperglycaemic activity

Structure (SMILES): COC(=O)c1ccc(CCCC(C)NCC(O)c2ccc(O)c(CO)c2)cc1 (stereo not shown) [Example 17]
- g - lipid per mouse, Treated (genetically obese mice; [3]): 14.0 ± 0.97 g
- anti-obesity activity (in words) (genetically obese mice): particularly worthy of mention in view of their anti-obesity activity
- inhibition in vivo at 5 mg/kg (blood glucose; [4]): 84%
- anti-hyperglycaemic activity (in words) (blood glucose): particularly worthy of mention in view of their anti-hyperglycaemic activity

Structure (SMILES): COC(=O)c1ccc(CCC(C)NCC(O)c2ccc(O)c(CO)c2)cc1 (stereo not shown) [Example 7]
- g - lipid per mouse, Treated (genetically obese mice; [5]): 14.3 ± 0.4 g
- anti-obesity activity (in words) (genetically obese mice): particularly worthy of mention in view of their anti-obesity activity
- inhibition in vivo at 5 mg/kg (blood glucose; [4]): 110%
- anti-hyperglycaemic activity (in words) (blood glucose): particularly worthy of mention in view of their anti-hyperglycaemic activity

Structure (SMILES): COC(=O)c1ccc(CC(C)NCC(O)c2cc(Cl)c(N)c(Cl)c2)cc1 (stereo not shown) [Example 30, N-(2-[4-Carbomethoxyphenyl]-1-methylethyl)-2-(4-amino-3,5-dichlorophenyl)-2-hydroxyethanamine]
- g - lipid per mouse, Treated (genetically obese mice; 22 mg/kg po, control 19.1 ± 0.47): 14.0 ± 0.57 g
- anti-obesity activity (in words) (genetically obese mice): particularly worthy of mention in view of their anti-obesity activity
- inhibition in vivo at 5 mg/kg (blood glucose; [4]): 141%
- anti-hyperglycaemic activity (in words) (blood glucose): particularly worthy of mention in view of their anti-hyperglycaemic activity

Structure (SMILES): COC(=O)c1ccc(CC(C)NCC(O)c2ccccc2Cl)cc1 (stereo not shown) [Example 28, N-(2-[4-Carbomethoxyphenyl]-1-methylethyl)-2-(2-chlorophenyl)-2-hydroxyethanamine]
- g - lipid per mouse, Treated (genetically obese mice; 19 mg/kg po, control 17.0 ± 0.67): 14.9 ± 0.37 g
- inhibition in vivo at 5 mg/kg (blood glucose; [4]): 37%

Structure (SMILES): COC(=O)c1ccc(CC(C)NCC(O)c2ccc(O)c(CO)c2)cc1 (stereo not shown) [21 (mp 140.5-143.5°), N-[2-(4-carbomethoxyphenyl)-1-methylethyl]-2-hydroxy-2-(4-hydroxy-3-hydroxymethylphenyl) ethanamine]
- g - lipid per mouse, Treated (genetically obese mice; [5]): 12.7 ± 0.8 g
- Reduction in area under blood glucose curve (%) (blood glucose; [4]): 153%

Structure (SMILES): COC(=O)c1ccc(CC(C)NCC(O)c2ccccc2)cc1 (stereo not shown) [Example 59 (mp 83°-4°), N-[2-(4-carbomethoxyphenyl)-1-methylethyl]-2-hydroxy-2-phenylethanamine]
- relative potency / activity (in words) [1]: more potent diastereoisomer

Structure (SMILES): COC(=O)c1ccc(CC(C)NCC(O)c2ccc(O)c(CO)c2)cc1 (stereo not shown) [21 (higher melting), N-[2-(4-carbomethoxyphenyl)-1-methylethyl]-2-hydroxy-2-(4-hydroxy-3-hydroxymethylphenyl) ethanamine]
- relative potency / activity (in words) [1]: more potent diastereoisomer
- anti-obesity activity (in words) (genetically obese mice): particularly worthy of mention in view of their anti-obesity activity
- anti-hyperglycaemic activity (in words) (blood glucose): particularly worthy of mention in view of their anti-hyperglycaemic activity

Structure (SMILES): COC(=O)c1ccc(CC(C)NCC(O)c2ccc(O)c(CO)c2)cc1 (stereo not shown) [Example 1]
- single lethal dose (CFLP mice): > 900 mg/kg
- g - lipid per mouse, Treated (genetically obese mice; 8 mg/kg po, control 23.3 ± 0.7): 20.8 ± 0.7 g
- anti-obesity activity (in words) (genetically obese mice): particularly worthy of mention in view of their anti-obesity activity
- inhibition in vivo at 5 mg/kg (blood glucose; [4]): 157%
- anti-hyperglycaemic activity (in words) (blood glucose): particularly worthy of mention in view of their anti-hyperglycaemic activity
- bronchodilator potency relative to salbutamol [2]: one twelfth as potent as salbutamol

Structure (SMILES): COC(=O)c1ccc(CC(C)NCC(O)c2ccccc2)cc1 (stereo not shown) [Example 22, N-(2-[4-Carbomethoxyphenyl]-1-methylethyl)-2-hydroxy-2-phenylethanamine]
- g - lipid per mouse, Treated (genetically obese mice; 9 mg/kg po, control 18.9 ± 0.66): 13.9 ± 0.65 g
- anti-obesity activity (in words) (genetically obese mice): particularly worthy of mention in view of their anti-obesity activity
- inhibition in vivo at 5 mg/kg (blood glucose; [4]): 172%
- anti-hyperglycaemic activity (in words) (blood glucose): particularly worthy of mention in view of their anti-hyperglycaemic activity
